The test system of assay [1] is human HT-1080 fibrosarcoma cells. As to the kind of experiment: growth inhibitory action against human HT-1080 fibrosarcoma cells (crystal violet method). It is filed as cell-based. Conditions: HT-1080 cells; for IC50: Homo sapiens, 24 hours culture with test drug, DMEM/F12 with 0.1% bovine serum albumin; for growth inhibitory action on HT-1080 fibrosarcoma cells (in words): 24 hours, summary of Table 1. Here is the method:
The growth inhibitory action of the selenazolin derivatives of chemical formulas 4 through 12 against human HT-1080 fibrosarcoma cells was investigated. HT-1080 fibrosarcoma cells growing in Eagle's Minimum Essential Medium (EMEM) containing 10% fetal calf serum within an incubator having an atmosphere of 5% CO2 and 95% air maintained at a temperature of 37 degrees Celsius were inoculated into a 96-well plate at the rate of 1×10^4 cells/well. After 48 hours, the medium was replaced with Dulbecco's Modified Eagle's Medium (DMEM)/F12 medium containing 0.1% bovine serum albumin, and the test drugs at each concentration (0.1 μM, 100 μM) were added, followed by culturing for 24 hours. Growth inhibitory action on human HT-1080 fibrosarcoma cells was determined from the staining density following staining using the crystal violet method.

The test system of another assay is protein kinases. As to the kind of experiment: simultaneous detection of the activity of a plurality of protein kinases on a single gel (lysate of v-src transformed NIH3T3 cells, labeled ATP, SDS-PAGE and autoradiography). It is filed as biochemical. The conditions noted are these: supernatant of v-src transformed NIH3T3 cells; relative to rottlerin, typically used as a protein kinase inhibitor. The method, then: Action relative to a plurality of protein kinases was investigated in accordance with the method for simultaneous detection of the activity of a plurality of protein kinases on a single gel as described in Anal. Biochem. 212:106–110, 1993.
More specifically, NIH3T3 cells transformed with v-src were disintegrated with a hypotonic buffer and denucleated by gentle centrifugation. Various types of […] (including 1 μM PMA (phorbolmyristate acetate), 20 μM cyclic adenosine-3′,5′-monophosphate (cAMP)) were then added to the centrifuged supernatant. Moreover, 3-isopropyl-2-isopropylimino-1,3-selenazolidin-4-one of chemical formula 4 and labeled adenosine triphosphate (ATP) were added and the mixture was allowed to react. After stopping the reaction, the phosphorylated protein was analyzed by SDS-PAGE and autoradiography.

For `Cc1ccc(N=C2[Se]CC(=O)N2c2ccc(C)cc2)cc1` [Chemical Formula 11, 3-p-tolyl-2-p-tolylimino-1,3-selenazolidin-4-one], the IC50 in assay [1] is more than 100 µM.

In turn, `Cc1ccccc1N=C1[Se]CC(=O)N1c1ccccc1C` [Chemical Formula 12, 3-o-tolyl-2-o-tolylimino-1,3-selenazolidin-4-one] displayed an IC50 in assay [1] of 75 µM. With `O=C1C[Se]C(=NC2CCCCC2)N1C1CCCCC1` [Chemical Formula 5, 3-cyclohexyl-2-cyclohexylimino-1,3-selenazolidin-4-one], the IC50 in assay [1] was more than 100 µM. Regarding `CC(C)N=C1[Se]C(c2ccccc2)C(=O)N1C(C)C` (stereo not shown) [Chemical Formula 9, 3-isopropyl-2-isopropylimino-5-phenyl-1,3-selenazolidin-4-one], in assay [1], the concentration for half-maximal inhibition (IC50) was more than 100 µM. As for `CC(C)(C)N=C1[Se]CC(=O)N1C(C)(C)C` [Chemical Formula 10, 3-t-butyl-2-t-butylimino-1,3-selenazolidin-4-one], in assay [1], the “growth inhibitory action on HT-1080 fibrosarcoma cells (in words)” value (from here on “growth inhibitory action”) was “potent growth inhibitory action” and the IC50 was 4.5 µM.

In turn, `CC(C)N=C1[Se]C(C)(C)C(=O)N1C(C)C` [Chemical Formula 8, 3-isopropyl-2-isopropylimino-5,5-dimethyl-1,3-selenazolidin-4-one] returned an IC50 in assay [1] of 98 µM.

For the compound `CCC1[Se]C(=NC(C)C)N(C(C)C)C1=O` (stereo not shown) [Chemical Formula 7, 3-isopropyl-2-isopropylimino-5-ethyl-1,3-selenazolidin-4-one], in assay [1], the “growth inhibitory action” value was “potent growth inhibitory action” and 2.5 µM corresponded to half-maximal inhibition (IC50). `CC(C)N=C1[Se]CC(=O)N1C(C)C` [Chemical Formula 4, 3-isopropyl-2-isopropylimino-1,3-selenazolidin-4-one]: in assay [1], the “growth inhibitory action” value is given as “potent growth inhibitory action” and half-maximal inhibition (IC50) required 3.2 µM. The “inhibitory activity compared with rottlerin” value with protein kinases is recorded as not below 20 times.

`CC(C)N=C1[Se]C(C)C(=O)N1C(C)C` (stereo not shown) [Chemical Formula 6, 3-isopropyl-2-isopropylimino-5-methyl-1,3-selenazolidin-4-one] returned an IC50 in assay [1] of 89 µM.
